In series [1] the test system is UPEC K1 strain UTI80. As to conditions: cited from earlier work.
Series [2] deals with Bladder carcinoma 5637 cells. To be noted: earlier report; cited from earlier work.
Series [3] has as its system K1 capsule of UTI89. Description: Secondary assay 3: orcinol assay for released K1 capsule polysaccharide. The class given is cell-based, Escherichia coli. To be noted: 100 μM, K1 strain UTI89. The procedure:
E. Secondary Assay 3: Orcinol Secondary Screening for Inhibitors of Bacterial Capsule Biogenesis.
Purpose: This assay was performed only on the probe candidate. […] The biochemical determination of cell-surface associated capsule was performed using UTI89 or the Delta Region I and Delta Region II capsule mutant bacterial strains.
Purpose: This assay was performed only on the probe candidate. […] The biochemical determination of cell-surface associated capsule was performed using UTI89 or the delta Region I and Region II capsule mutant bacterial strains.
Assay Description: The biochemical measurement of cell-surface associated capsule was performed. UTI89 or capsule mutants were grown in culture tubes with and without the test compound (50 μM). The cultures were centrifuged, and the cell pellets were washed in PBS and resuspended in Tris buffer, pH5. […] Released polysaccharide was harvested by separation from whole bacteria by centrifugation followed by deproteination with phenol/chloroform and precipitation with ethanol. The precipitated material was subjected to acid hydrolysis (pH 2 at 80° C. for 1 hr) and incubated with orcinol, which reacts with periodic intermediates to produce a violet color quantified at OD 570 (3) Inhibitors reducing or abrogating surface encapsulation yielded low orcinol levels similar to the capsule export and synthesis mutants (Region I and II). The positive control drug C7 (100 μM final well concentration) was used in this screen.
Endpoint Read: The samples were read at ambient temperature from the bottom for absorbance at A570 in a BioTek Quantplate reader and the degree of orcinol-reactive material was determined based on the absorbance compared to a wild-type encapsulated strain (UTI89) and a standard curve using purified sialic acid.
Orcinol assay for released capsule material. Orcinol reactivity was used as a biochemical confirmation of altered extracellular capsule after compound treatment. UTI89 or an isogenic capsule mutant was grown in 100 μM of test compound or 1% DMSO. The assay was performed as previously described. The molecule C7 (100 μM final concentration) was used as a positive control. The assay was performed 3 times with replicate samples.

For `O=C(O)c1cc(-c2ccc(-c3ccccc3)cc2)nc2cc3ccccc3cc12` [C7, 2-(4-phenylphenyl)-benzo[g]quinoline-4-carboxylic acid], the “Concentration at which the inhibitory effect reaches saturation” value in series [1] is recorded as “approximately 25 μM”. In addition, the IC50 in series [1] (read-out: Concentration giving approximately 50% inhibition of K1F phage lysis (IC50)) is 12.5 to 25 µM. Besides, the “Toxicity to cultured bladder epithelial cells” value in series [2] is reported as “lacks obvious toxicity”. Besides, in series [3], the “Reduction of orcinol-reactive polysaccharides on surface of bacteria” value was ~80%.

The values above are taken from patent publication US9688653B2, “Ethoxyphenyl thienyl compounds and methods for the treatment of bacterial infections” (Duke University, priority 2013, dated 2017).
